Data reported in US10816552B2 (The Governing Council of the University of Toronto, priority 2014, dated 2020).

Tests used:
[1] = test system: HCT116 cells; assay: Mass cytometry hypoxia labelling (130Te signal); assay type: cell-based
Description: FIGS. 4A-E show a schematic representation and density maps and plots. FIG. 4A is a schematic representation of Telox/Telox2 cell labelling for analysis via mass cytometry on a second-generation CyTOF instrument. FIG. 4b) is a density map of signal event length vs. ^130Te signal (arbitrary units). FIG. 4c) is a density plot output from the top-right gate in b) of ^193Ir signal (arbitrary units) vs. ^103Rh signal (arbitrary units). More than 93% of detected events fall in the square gate. FIG. 4d) is a density plot output from the bottom-left gate in b) of ^193Ir signal (arbitrary units) vs. ^103Rh signal (arbitrary units). More than 89% of detected events fall in the square gate. FIG. 4e) is a population histograms of cell ^130Te content (arbitrary units). Oxygen concentrations are listed as numerical percentages, P=Pimonidazole (100 μM). Blue and red histograms are Pimonidazole-negative controls. Orange and green histograms are Pimonidazole- positive competition experiments. Note: warmer colors in density plots indicate higher cell population density.
FIGS. 8A and B show a) the absolute ^130Te signal as a function of concentration as determined by mass cytometry analysis of HCT116 cells incubated with the exemplary compound, Telox-2, for 3 hours in either near-anoxic (˜0% O2), hypoxic (˜1% O2) or normoxic (21% O2) atmosphere; and b) the signal-to-noise (fold-change) representation of the data presented in part a.
FIGS. 9A-D show a) Absolute ^130Te signal as a function of time as determined by mass cytometry analysis of HCT116 cells incubated with 10 μM of the exemplary compound,Telox-2 (constant exposure), in either near-anoxic (˜0% O2), hypoxic (˜1% O2) or normoxic (21% O2) atmosphere; b) the signal-to-noise (fold-change) representation of the data presented in part a; and c) the absolute ^130Te signal as a function of time as determined by mass cytometry analysis of HCT116 cells incubated with 10 μM Telox-2 for 3 hours followed by replacement of Telox-2-containing media with fresh media in either near-anoxic (˜0% O2), hypoxic (˜1% O2) or normoxic (21% O2) atmosphere; and d) the signal-to-noise (fold-change) representation of the data presented in part c.
HCT116 (500,000) cells were seeded in 60 mm plastic petri dishes (Corning Inc., NY) and incubated for 24 h at 37° C., 21% O2/5% CO2. The cells were transferred to hypoxia chambers (H35/H85 hypoxia workstation, Don Whitley Scientific) maintained at 1%/0.2% or <0.02% O2 for 3 h. Hypoxia experiments (<0.02% O2) were performed by seeding the cells in 60 mm glass plates (Corning Inc., NY).
(§1) HCT 116 cells (see sections i and ii) were incubated in media containing Telox or Telox2 (100 μM, added as a neat solution in sterile DMSO; final [DMSO]=0.1%) for 3 hours under atmosphere containing an appropriate concentration of O2. Following incubation, the media was removed, cells were washed with sterile PBS, and then separated from the incubation plate via trypsinization (37° C., 10 min) and gentle scraping. The cell suspension was pelleted and resuspended in PBS containing β-ME (1.0 mL, 100 mM). Cells were pelleted, resuspended in PBS (900 μL, no β-ME), and fixed with formaldehyde (100 μL, 37% solution) for 25 minutes. Following fixation, cells were pelleted, resuspended in PBS containing β-ME (1.0 mL, 100 mM), and pelleted once again. Cells were then resuspended in PBS ([…], no β-ME) and incubated with either the Ir-containing nucleic acid intercalator (hypoxic cells) or the Rh containing nucleic acid intercalator (normoxic cells) (10 μL, 100 μM solution in sterile PBS) for 20 minutes. Cells were then pelleted and resuspended in PBS (1.0 mL, no β-ME) twice. Cell pellets were then resuspended in PBS containing ^151/153EU beads (1/10 dilution of CyTOF® calibration beads, DVS Sciences, 1.0-2.5 mL depending on pellet size). The two cells samples were then combined (250 μL of each) and 250 μL of the resultant sample was injected onto a second-generation CyTOF® instrument for MC analysis. […]

[2] = test system: HCT116 cells; assay: Competitive labelling with pimonidazole (mass cytometry); assay type: cell-based; conditions: HCT116, Telox-2 10 μM, near-anoxic
Method: Concentration Telox-2=10 μM. The absolute ^130Te signal was measured using mass cytometry.
as §1, with “size).” for “size). The two cells samples were then combined (250 μL of each) and 250 μL of the resultant sample was injected onto a second-generation CyTOF® instrument for MC analysis.”

[3] = 1H NMR stability of Telox-2 in D2O (0.01% dDMSO); assay type: physicochemical
Description: To investigate the stability of Telox-2 compared to Telox ^1H NMR spectra of Telox-2 were collected over a period of 1 week under biologically-relevant conditions (0.01% dDMSO in D2O).

[4] = Solubility observations; assay type: physicochemical
[5] = Empirical log P by UV-Vis assay; assay type: physicochemical; conditions: aqueous buffer; UV-Vis assay conditions

SMILES: O=[N+]([O-])c1nccn1CCc1ccc[te]1 [Telox-2, 2-nitro-1-(2-(tellurophen-2-yl)ethyl)-1H-imidazole]
- signal-to-noise vs incubation time, constant exposure ([1]; HCT116, 10 μM, near-anoxic and moderately hypoxic vs normoxic control): enhanced as incubation time increases
- signal-to-noise under moderately hypoxic conditions vs near-anoxic ([1]; HCT116, 1% O2): significantly lower
- loss of probe-protein conjugates after pulsed exposure ([1]; HCT116, 3 hours exposure then fresh media up to additional 21 hours): exponential-type decay
- optimal probe concentration to maximize signal-to-noise ([1]; HCT116, 3 hours, normoxic vs near-anoxic): 10 µM
- labelling under competitive conditions with pimonidazole [2]: reduced in a (pimonidazole) dose-dependent manner
- degradation by 1H NMR over 1 week ([3]; 0.01% dDMSO in D2O, 1 week, 200 μM): no observable degradation
- aggregate or micelle formation in aqueous solution (1H NMR peak broadening) ([3]; high concentrations (2 mM)): does not form aggregates or micelles
- solubility, in words [4]: unusually high water solubility
- logP [5]: 1.3
